Here are results for one compound from patent publication US20120180807A1, “Method for Chemically Modifying the Internal Region of a Hair Shaft” (priority 2011, published 2012).

This series in a line: Water solubility / dissolving of monomer and polymer (other in-vitro-experiments). The class given is physicochemical. The text has this: However, dissolving polymer, once it had been dried, takes considerably longer (some hours) than dissolving dry monomer (some seconds). […] All the 20 hair fibres of each sample without H2O2 pre-treatment lost their radioactivity of the cuticle area by washing, whereas all the other samples kept it.

In the case of `C=CC(=O)OCCCS(=O)(=O)O` [3-SPA, 3-sulfopropylacrylate], the water solubility entry is listed as “water soluble”. Besides, the “time for dissolving in water” value (dry / once dried material) was “some seconds”.
